Results from ChEMBL document CHEMBL3792311, “In vitro and in vivo activity of ML302F: a thioenolate inhibitor of VIM-subfamily metallo -lactamases” (Medchemcomm, 2016).
Calls of active or inactive are those of the source. The calls are words filed in the database; no cut-off is given here.

Experiments:
Pseudomonas aeruginosa [1] = experiment: Potentiation of meropenem-induced antibacterial activity against VIM2 carbapenemase producing multidrug-resistant Pseudomonas aeruginosa 27 clinical isolate assessed as MIC of meropenem at 1:8 meropenem:compound ratio by broth microtiter dilution method; assay type: functional
Enterobacter cloacae = experiment: Potentiation of meropenem-induced antibacterial activity against VIM4 carbapenemase producing multidrug-resistant Enterobacter cloacae 102 clinical isolate assessed as MIC of meropenem at 1:8 meropenem:compound ratio by broth microtiter dilution method; assay type: functional
Klebsiella pneumoniae [2] = experiment: Potentiation of meropenem-induced antibacterial activity against VIM4 carbapenemase producing multidrug-resistant Klebsiella pneumoniae 120 clinical isolate assessed as MIC of meropenem at 1:8 meropenem:compound ratio by broth microtiter dilution method; assay type: functional
Providencia stuartii = experiment: Potentiation of meropenem-induced antibacterial activity against VIM1 carbapenemase producing multidrug-resistant Providencia stuartii 70 clinical isolate at 1:8 meropenem:compound ratio by checkerboard method; assay type: functional
Pseudomonas aeruginosa [3] = experiment: Potentiation of meropenem-induced antibacterial activity against VIM2 carbapenemase producing multidrug-resistant Pseudomonas aeruginosa GR57 clinical isolate assessed as MIC of meropenem at 1:8 meropenem:compound ratio by broth microtiter dilution method; assay type: functional
Pseudomonas aeruginosa [4] = experiment: Potentiation of meropenem-induced antibacterial activity against VIM2 carbapenemase producing multidrug-resistant Pseudomonas aeruginosa GR58 clinical isolate assessed as MIC of meropenem at 1:8 meropenem:compound ratio by broth microtiter dilution method; assay type: functional
Pseudomonas aeruginosa [5] = experiment: Potentiation of meropenem-induced antibacterial activity against VIM2 carbapenemase producing multidrug-resistant Pseudomonas aeruginosa 8 clinical isolate assessed as MIC of meropenem at 1:8 meropenem:compound ratio by broth microtiter dilution method; assay type: functional
Pseudomonas aeruginosa [6] = experiment: Potentiation of meropenem-induced antibacterial activity against VIM2 carbapenemase producing multidrug-resistant Pseudomonas aeruginosa 11 clinical isolate assessed as MIC of meropenem at 1:8 meropenem:compound ratio by broth microtiter dilution method; assay type: functional
Pseudomonas aeruginosa [7] = experiment: Potentiation of meropenem-induced antibacterial activity against VIM2 carbapenemase producing multidrug-resistant Pseudomonas aeruginosa 12 clinical isolate assessed as MIC of meropenem at 1:8 meropenem:compound ratio by broth microtiter dilution method; assay type: functional
Escherichia coli [8] = experiment: Potentiation of meropenem-induced antibacterial activity against VIM4 carbapenemase producing multidrug-resistant Escherichia coli 98 clinical isolate infected in Galleria mellonella larvae assessed as survival rate at 4.8 mg/kg measured at 96 hrs; assay type: functional; conditions: Escherichia coli, 98, 96 h
Pseudomonas aeruginosa [9] = experiment: Potentiation of meropenem-induced antibacterial activity against VIM2 carbapenemase producing multidrug-resistant Pseudomonas aeruginosa GR62 clinical isolate at 1:8 meropenem:compound ratio by checkerboard method; assay type: functional
Pseudomonas aeruginosa [10] = experiment: Potentiation of meropenem-induced antibacterial activity against VIM2 carbapenemase producing multidrug-resistant Pseudomonas aeruginosa GR62 clinical isolate assessed as MIC of meropenem at 1:8 meropenem:compound ratio by broth microtiter dilution method; assay type: functional
Klebsiella pneumoniae [11] = experiment: Antibacterial activity against VIM4 carbapenemase producing multidrug-resistant Klebsiella pneumoniae 120 clinical isolate infected in Galleria mellonella larvae assessed as survival rate at 4.8 mg/kg measured at 96 hrs; assay type: functional, organism-based
Escherichia coli [12] = experiment: Antibacterial activity against VIM4 carbapenemase producing multidrug-resistant Escherichia coli 98 clinical isolate infected in Galleria mellonella larvae assessed as survival rate at 4.8 mg/kg measured at 96 hrs; assay type: functional, organism-based
Pseudomonas aeruginosa [13] = experiment: Antibacterial activity against VIM2 carbapenemase producing multidrug-resistant Pseudomonas aeruginosa GR57 clinical isolate infected in Galleria mellonella larvae assessed as survival rate at 4.8 mg/kg measured at 96 hrs; assay type: functional, organism-based
Klebsiella pneumoniae [14] = experiment: Potentiation of meropenem-induced antibacterial activity against VIM4 carbapenemase producing multidrug-resistant Klebsiella pneumoniae 120 clinical isolate infected in Galleria mellonella larvae assessed as relative risk of survival at 4.8 mg/kg measured at 96 hrs relative to control; assay type: functional
Klebsiella pneumoniae [15] = experiment: Antibacterial activity against VIM1 carbapenemase producing multidrug-resistant Klebsiella pneumoniae GR54 clinical isolate up to 512 mg/L by broth microtiter dilution method; assay type: functional, organism-based
Klebsiella pneumoniae [16] = experiment: Antibacterial activity against VIM1 carbapenemase producing multidrug-resistant Klebsiella pneumoniae 177 clinical isolate up to 512 mg/L by broth microtiter dilution method; assay type: functional, organism-based
Pseudomonas aeruginosa [17] = experiment: Antibacterial activity against VIM2 carbapenemase producing multidrug-resistant Pseudomonas aeruginosa 30 clinical isolate up to 512 mg/L by broth microtiter dilution method; assay type: functional, organism-based
Pseudomonas aeruginosa [18] = experiment: Antibacterial activity against VIM2 carbapenemase producing multidrug-resistant Pseudomonas aeruginosa 50 clinical isolate up to 512 mg/L by broth microtiter dilution method; assay type: functional, organism-based
Pseudomonas aeruginosa [19] = experiment: Antibacterial activity against VIM2 carbapenemase producing multidrug-resistant Pseudomonas aeruginosa GR58 clinical isolate up to 512 mg/L by broth microtiter dilution method; assay type: functional, organism-based
Pseudomonas aeruginosa [20] = experiment: Antibacterial activity against VIM2 carbapenemase producing multidrug-resistant Pseudomonas aeruginosa GR64 clinical isolate up to 512 mg/L by broth microtiter dilution method; assay type: functional, organism-based
Pseudomonas aeruginosa [21] = experiment: Antibacterial activity against VIM2 carbapenemase producing multidrug-resistant Pseudomonas aeruginosa 3 clinical isolate up to 512 mg/L by broth microtiter dilution method; assay type: functional, organism-based
Pseudomonas aeruginosa [22] = experiment: Antibacterial activity against VIM2 carbapenemase producing multidrug-resistant Pseudomonas aeruginosa 8 clinical isolate up to 512 mg/L by broth microtiter dilution method; assay type: functional, organism-based
Pseudomonas aeruginosa [23] = experiment: Antibacterial activity against VIM2 carbapenemase producing multidrug-resistant Pseudomonas aeruginosa 9 clinical isolate up to 512 mg/L by broth microtiter dilution method; assay type: functional, organism-based
Pseudomonas aeruginosa [24] = experiment: Antibacterial activity against VIM2 carbapenemase producing multidrug-resistant Pseudomonas aeruginosa 13 clinical isolate up to 512 mg/L by broth microtiter dilution method; assay type: functional, organism-based
Pseudomonas aeruginosa [25] = experiment: Antibacterial activity against VIM2 carbapenemase producing multidrug-resistant Pseudomonas aeruginosa 27 clinical isolate up to 512 mg/L by broth microtiter dilution method; assay type: functional, organism-based
Klebsiella oxytoca [26] = experiment: Antibacterial activity against VIM4 carbapenemase producing multidrug-resistant Klebsiella oxytoca 126 clinical isolate up to 512 mg/L by broth microtiter dilution method; assay type: functional, organism-based
Pseudomonas aeruginosa [27] = experiment: Potentiation of meropenem-induced antibacterial activity against VIM2 carbapenemase producing multidrug-resistant Pseudomonas aeruginosa 50 clinical isolate at 1:8 meropenem:compound ratio by checkerboard method; assay type: functional
Pseudomonas aeruginosa [28] = experiment: Potentiation of meropenem-induced antibacterial activity against VIM2 carbapenemase producing multidrug-resistant Pseudomonas aeruginosa 3 clinical isolate at 1:8 meropenem:compound ratio by checkerboard method; assay type: functional
Pseudomonas aeruginosa [29] = experiment: Potentiation of meropenem-induced antibacterial activity against VIM2 carbapenemase producing multidrug-resistant Pseudomonas aeruginosa 8 clinical isolate at 1:8 meropenem:compound ratio by checkerboard method; assay type: functional
Pseudomonas aeruginosa [30] = experiment: Potentiation of meropenem-induced antibacterial activity against VIM2 carbapenemase producing multidrug-resistant Pseudomonas aeruginosa 6 clinical isolate at 1:8 meropenem:compound ratio by checkerboard method; assay type: functional
Pseudomonas aeruginosa [31] = experiment: Potentiation of meropenem-induced antibacterial activity against VIM2 carbapenemase producing multidrug-resistant Pseudomonas aeruginosa 14 clinical isolate at 1:8 meropenem:compound ratio by checkerboard method; assay type: functional
Klebsiella oxytoca [32] = experiment: Potentiation of meropenem-induced antibacterial activity against VIM4 carbapenemase producing multidrug-resistant Klebsiella oxytoca 126 clinical isolate at 1:8 meropenem:compound ratio by checkerboard method; assay type: functional
Klebsiella pneumoniae [33] = experiment: Potentiation of meropenem-induced antibacterial activity against VIM4 carbapenemase producing multidrug-resistant Klebsiella pneumoniae 101 clinical isolate at 1:8 meropenem:compound ratio by checkerboard method; assay type: functional

Work on `O=C(O)/C(S)=C/c1c(Cl)ccc(Cl)c1Cl` yielded an MIC (Pseudomonas aeruginosa [1]) of 16 mg/L, an MIC (Enterobacter cloacae) of 4 mg/L and an MIC (Klebsiella pneumoniae [2]) of 2 mg/L. For the same compound, the “fractional inhibitory concentration index (FICI)” value (Providencia stuartii) was 0.14, the MIC (Pseudomonas aeruginosa [3]) was 4 mg/L and the MIC (Pseudomonas aeruginosa [4]) was 8 mg/L. It also gave an MIC (Pseudomonas aeruginosa [5]) of 16 mg/L, an MIC (Pseudomonas aeruginosa [6]) of 2 mg/L and an MIC (Pseudomonas aeruginosa [7]) of 32 mg/L. For the same compound, the survival at 4.8 mg/kg (Escherichia coli [8]) was 69%, the “fractional inhibitory concentration index (FICI)” value (Pseudomonas aeruginosa [9]) was 0.38 and the MIC (Pseudomonas aeruginosa [10]) was 8 mg/L. The Activity (Klebsiella pneumoniae [11]) was “Active”, the Activity (Escherichia coli [12]) was “Active” and the Activity (Pseudomonas aeruginosa [13]) was “Active”. The “fold change (FC)” value (Klebsiella pneumoniae [14]) was 0.7, the Activity (Klebsiella pneumoniae [15]) was “inactive” and the Activity (Klebsiella pneumoniae [16]) was “inactive”. The Activity (Pseudomonas aeruginosa [17]) was “inactive”, the Activity (Pseudomonas aeruginosa [18]) was “inactive” and the Activity (Pseudomonas aeruginosa [19]) was “inactive”. For the same compound, the Activity (Pseudomonas aeruginosa [20]) was “inactive”, the Activity (Pseudomonas aeruginosa [21]) was “inactive” and the Activity (Pseudomonas aeruginosa [22]) was “inactive”. For the same compound, the Activity (Pseudomonas aeruginosa [23]) was “inactive”, the Activity (Pseudomonas aeruginosa [24]) was “inactive” and the Activity (Pseudomonas aeruginosa [25]) was “inactive”. The Activity (Klebsiella oxytoca [26]) was “inactive”, the “fractional inhibitory concentration index (FICI)” value (Pseudomonas aeruginosa [27]) was 0.38 and the “fractional inhibitory concentration index (FICI)” value (Pseudomonas aeruginosa [28]) was 0.25. The “fractional inhibitory concentration index (FICI)” value (Pseudomonas aeruginosa [29]) was 0.38, the “fractional inhibitory concentration index (FICI)” value (Pseudomonas aeruginosa [30]) was 0.38 and the “fractional inhibitory concentration index (FICI)” value (Pseudomonas aeruginosa [31]) was 0.06. For the same compound, the “fractional inhibitory concentration index (FICI)” value (Klebsiella oxytoca [32]) was 0.19 and the “fractional inhibitory concentration index (FICI)” value (Klebsiella pneumoniae [33]) was 0.09.
